{
  "source": "patent US10030058B2",
  "about": "“Modulating gamma-C-cytokine activity” (Bioniz, LLC, priority 2015, dated 2018)",
  "tested_on": "T-cells in HAM/TSP patient PBMC culture",
  "test": "Ex vivo spontaneous T-cell proliferation assay using HAM/TSP peripheral blood",
  "format": "cell-based, human",
  "settings": "FIG. 4D",
  "protocol": "Proliferation assays were performed on HAM/TSP patient blood samples with and without the addition of BNZ-γ. These assays evaluated the ability of BNZ-γ to block the function of cytokines, such as IL-2 and IL-15, present in the ex vivo HAM/TSP patient blood culture and prevent spontaneous T-cell proliferation in these samples.\nIn an ex vivo spontaneous T-cell proliferation assay, PBMC from HAM/TSP patient was cultured at 1×10(6) cells per well of a 96 well plate in RPMI-10% FCS. Increasing concentrations of BNZ-γ peptide were added to each well. As a control, an irrelevant peptide was used in similar fashion. The cells were incubated in a 37° C. CO2 incubator for 3, 4, and 6 days. The amount of 1 uCi of ^3H-thymidine was added to the cells. After an additional 6 hour incubation, cells were harvested their proliferation rate was measured. As indicated in FIG. 4A-FIG. 4D, BNZ-γ peptide inhibits the spontaneous proliferation of T-cells in HAM/TSP culture at a concentration of about 1 ug/ml.\nOther immunological markers were additionally measured in this assay. The percentage of the viral specific CD8 cells was measured during the ex vivo culture using viral protein tetramers. The population of CD4+CD25+ cells, a marker of T-cell activation, as well as Ki67 staining, a marker of T-cell proliferation, was monitored in a flow cytometry assay.",
  "note": "Peptide text beside a SMILES is read from it.",
  "data": [
    {"smiles": "CC[C@H](C)[C@H](N)C(=O)N[C@@H](CCCCN)C(=O)N[C@@H](CCC(=O)O)C(=O)N[C@@H](Cc1ccccc1)C(=O)N[C@@H](CC(C)C)C(=O)N[C@@H](CCC(N)=O)C(=O)N[C@@H](CCCNC(=N)N)C(=O)N[C@@H](Cc1ccccc1)C(=O)N[C@H](C(=O)N[C@@H](Cc1c[nH]cn1)C(=O)N[C@H](C(=O)N[C@H](C(=O)N[C@@H](CCC(N)=O)C(=O)N[C@@H](CO)C(=O)N[C@H](C(=O)N[C@H](C(=O)N[C@@H](CC(N)=O)C(=O)N[C@H](C(=O)N[C@@H](CO)C(=O)O)[C@@H](C)O)[C@@H](C)CC)[C@@H](C)CC)C(C)C)[C@@H](C)CC)[C@@H](C)CC", "note": "[BNZ-γ, I-K-E-F-L-Q-R-F-I-H-I-V-Q-S-I-I-N-T-S] (H-IKEFLQRFIHIVQSIINTS-OH)", "values": [
      {"measurement": "percent of live cells by Guava staining", "result": "not impacted"}
    ]}
  ]
}
